{
  "source": "patent US12534707B2",
  "about": "“Method for generating cardiac tissue mimetics” (GENOME BIOLOGICS UG, priority 2019, dated 2026)",
  "molecules": {"B1": {"name": "TGF β2: transforming growth factor β2 (R&D Systems; 302-B2), inducer of endothelial-mesenchymal transition and cardiac fibrosis (protein, UniProt P61812 303-414, looked up)", "Transforming growth factor …": "ALDAAYCFRNVQDNCCLRPLYIDFKRDLGWKWIHEPKGYNANFCAGACPYLWSSDTQHSRVLSLYNTINPEASASPCCVSQDLEPLTILYYIGKTPKIEQLSNMIVKSCKCS"}},
  "key": {"[1]": {"system": "HUVEC", "assay": "Tube formation assay", "format": "cell-based, human", "settings": "1 μM Propranolol or 50 μM Metoprolol, 24 hours on Matrigel, vs Ctrl. and 0.1% DMSO; FIGS. 23, 24", "description": "Tube formation assay was performed as previously described (J. U. G. Wagner, E. Chavakis, E. M. Rogg, M. Muhly-Reinholz, S. F. Glaser, S. Gunther, D. John, F. Bonini, A. M. Zeiher, L. Schaefer, M. J. Hannocks, R. A. Boon, S. Dimmeler, 2018, Arterioscler Thromb Vasc Biol 38(5), 1170-1177). Briefly, in vitro tube formation was performed with 2×10^4 HUVECs cultured in 100 μL of fully supplemented EBM™ in 96-well plates (Greiner Bio-One GmbH) that had been coated with 100 μL Matrigel® (Corning; 356234)."}, "[2]": {"system": "cardiac tissue mimetics (CTMs)", "assay": "Contractility measurement of CTMs (spontaneous beats per minute; pacing at 1 Hz and 15 V)", "settings": "200 μM PE with 1 μM Propranolol or 50 μM Metoprolol, 10 days, vs PE + 0.1% DMSO; FIG. 20"}, "[3]": {"system": "cardiac tissue mimetics (CTMs)", "assay": "CTM vascularisation (GFP-HUVEC sprout length, thickness, branch points)", "format": "cell-based, rat, human", "settings": "200 μM PE with 1 μM Propranolol or 50 μM Metoprolol, 10 days, vs 0.1% DMSO; FIGS. 21, 22"}, "[4]": {"system": "HUVEC spheroids", "assay": "Spheroid-based angiogenic sprouting assay", "format": "cell-based, human", "settings": "for endothelial sprouting of HUVEC spheroids with supernatants of CM cultured with PE plus β-blocker: neonatal rat CM 72 hours with 200 μM PE + 1 μM Propranolol or 50 μM Metoprolol, vs PE alone, FIG. 25", "description": "After 72 hours, cell culture supernatants were centrifuged (500×g, 5 minutes) to deplete dead cells and stored at −80° C.\nEndothelial cell sprouting was studied by in vitro spheroid-based angiogenesis assays. In brief, HUVECs were trypsinized and transferred into a mixture of fully supplemented EBM™ and methylcellulose (80%:20%). […] After 24 hours, spheroids were collected, pelleted (200×g, 3 minuted), resuspended in methylcellulose supplemented with FCS (80%:20%) and embedded in a collagen Type-I gel (Corning; 354236). HUVEC spheroids were then either cultured with fully supplemented EBM (+/−VEGF (50 ng/mL; BioLegend; 583702) or +/−PE (200 μM)), maintenance medium or conditioned cell culture medium."}, "[5]": {"system": "cardiac tissue mimetics (CTMs)", "assay": "CTM size measurement", "settings": "200 μM PE + 1 μM Propranolol / 50 μM Metoprolol vs PE + 0.1% DMSO; FIG. 39"}, "[6]": {"system": "mature CTMs", "assay": "Injury assay on mature CTMs (immunofluorescence, SHG, Sirius red)", "format": "cell-based, rat, human", "description": "In case of whole mount stainings, CTMs were permeabilized with 0.2% Triton® X-100 in PBS for 1 hour at room temperature followed by blocking with 5% horse serum (Sigma-Aldrich) in PBS for 30 minutes at room temperature. Primary antibodies (see Table 1) were diluted 1:200 in 5% horse serum and incubated over night at 4° C. Before using the secondary antibody (see table below), CTMs were washed three times with PBS containing 1% Tween 20 and 0.002% Triton® X-100 (referred as PBT from here after) for 20 minutes at room temperature. Secondary antibodies (1:500) and DAPI (1:1000; Carl-Roth GmbH & Co. KG) were diluted in 5% horse serum together and incubated for 4 hours at room temperature in the dark. […] Cryo-sections were prepared by embedding fixed spheroids in O.C.T medium (Tissue-Tek), snap-freezing them in liquid nitrogen and cutting them in 10 μm thick sections. Sections were permeabilized and blocked for one hour in 0.1% Triton® X100 (in PBS+BSA). Primary antibody incubated with the sections diluted 1:50-1:100 in 1 mM MgCl2, 1 mM CaCl2, 0.1 mM MnCl2, 1% Triton® X-100 or 0.2% saponin over night at 4° C. The next day, sections were washed trice with 0.1% Triton® X100/PBS or 0.2 saponin (five minutes each) and incubated with the secondary antibody diluted 1:200 in 0.1% Triton® X100 or 0.2% saponin (in PBS) for one hour at room temperature in the dark. Finally, sections were washed again trice with 0.1% Triton® X100/PBS or 0.2% saponin and mounted with mounting medium containing DAPI or Hoechst 33342. Endothelial cells were stained with Isolectin B4.\nThe second-harmonics generation imaging was performed on an upright spectral multiphoton microscope (Leica TCS SP8 DIVE, non-descanned spectral detectors, objective HC IRAPO L 25×/1.00 W) using 10 μm thick CTM sections. A 1045 nm laser was used for SHG and the signal was detected with a PMT and a detection window from 517 nm to 527 nm. A second detection window was used to record autofluorescence for comparison (552 nm to 565 nm).\nSirius red staining was used to determine collagen deposition and fibrosis in paraffin sections of young versus aged mice hearts. In a first step, the paraffin sections were deparaffinised with xylene (twice 10 minutes) and an ethanol series of 100%, 95%, 80%, 70% and 50% ethanol (5 minutes each step), before washing the sections with water and PBS (5 minutes each step). In a second step, a 0.1% Picrosirius Red solution was prepared by solving 0.5 g Sirius Red (Waldeck GmbH) in 500 mL picric acid (Sigma-Aldrich) that incubated with the deparaffinised sections for 1 hour. After washing two times with acidified water, the sections were dehydrated with 100% ethanol, cleared with xylene and mounted with Pertex (Medite) […]"}},
  "note": "Entries after “also recorded” stand apart in the source; their conditions may differ.",
  "data": [
    {"molecule": "COCCc1ccc(OCC(O)CNC(C)C)cc1", "note": "(centres unmarked) [Metoprolol]", "values": [
      {"measurement": "direct effect on HUVEC tube formation (accumulated tube length)", "setting": "[1]", "result": "no differences; also recorded: could not be detected"},
      {"measurement": "frequency of CTM contraction (beats per minute)", "setting": "[2]", "result": "significantly decreased; also recorded: reduced"},
      {"measurement": "angiogenic sprouting in PE-treated CTMs", "setting": "[3]", "result": "significant decrease"},
      {"measurement": "endothelial sprouting of HUVEC spheroids with supernatants of CM cultured with PE plus β-blocker", "setting": "[4]", "result": "no significant alterations"}
    ]},
    {"molecule": "CC(C)NCC(O)COc1cccc2ccccc12", "note": "(centres unmarked) [Propranolol]", "values": [
      {"measurement": "direct effect on HUVEC tube formation (accumulated tube length)", "setting": "[1]", "result": "no differences; also recorded: could not be detected"},
      {"measurement": "frequency of CTM contraction (beats per minute)", "setting": "[2]", "result": "significantly decreased; also recorded: reduced"},
      {"measurement": "angiogenic sprouting in PE-treated CTMs", "setting": "[3]", "result": "significant decrease"},
      {"measurement": "PE-induced hypertrophic growth (CTM size, fold change)", "setting": "[5]", "result": "diminished"},
      {"measurement": "endothelial sprouting of HUVEC spheroids with supernatants of CM cultured with PE plus β-blocker", "setting": "[4]", "result": "no significant alterations"}
    ]},
    {"molecule": "VEGF", "values": [
      {"measurement": "EC spheroid growth / vascular network growth and branching (cumulative sprout length), direct treatment", "setting": "[4]", "result": "significantly increased"}
    ]},
    {"molecule": "B1", "values": [
      {"measurement": "endothelial-mesenchymal transition (ECs expressing vimentin, SM22α, collagen III)", "setting": "[6]; mature CTMs treated 3 days with TGF β2, FIGS. 32, 40", "result": "occurs; also recorded: single ECs expressing vimentin were found"},
      {"measurement": "cardiac fibroblast activation (vimentin staining)", "setting": "[6]; mature CTMs with or without TGF β2, FIG. 28", "result": "evidence of cardiac fibroblast activation"},
      {"measurement": "CTM vascularization (angiogenic sprouting)", "setting": "[6]; mature CTMs, 200 μM PE + 10 ng/mL TGF β2, 3 days, vs PE, FIGS. 26, 27", "result": "slightly increased; also recorded: failed to reach significance"},
      {"measurement": "collagen deposition (SHG, Sirius Red staining)", "setting": "[6]; mature CTMs, PE + 10 ng/mL TGF β2, 3 days, FIGS. 29-31", "result": "induced; also recorded: augments"}
    ]}
  ]
}
